Some test systems named below: SN12C; NCI-H522; MDA-N; M14; SNB-75; CCRF-CEM; 786-0; Malme-3M; SW-620; LOX IMVI; ACHN; HCT-15; K562; MDA-MB-435; U-251; A549; SK-MEL-28; SR; MOLT-4.
What all share (experiment): inhibition of tumour cell growth, NCI panel, 48 h

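Step 1: Grow cells in 96-well plates. Step 2: Expose to compound for 48 hours at 5 concentrations. Step 3: Interpolate endpoints linearly; if unreached, use highest concentration. GI50 marks 50% less growth.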 The source made the active and inactive calls. Rule as the data show it: active = GI50 up to about 1.1 µM and inactive = higher.

Regarding `C=C1C2CCC3(CCC4C5(C)CCCC4(C=[N+](CCO)C5)C3C2)C1O` (configuration not stated), the GI50 in the test with SN12C, in the test with NCI-H522, in the test with MDA-N, with M14, with SNB-75 and with CCRF-CEM was > 100 µM (inactive) throughout. Further, the GI50 in the test with 786-0 was > 100 µM (inactive); in the test with Malme-3M it was > 100 µM (inactive); with SW-620 it was > 100 µM (inactive); in the test with LOX IMVI, > 100 µM (inactive); in the test with ACHN it was > 100 µM (inactive); in the test on HCT-15, more than 100 µM. For the same compound, the GI50 with K562 was > 10 µM (inactive); in the test on MDA-MB-435, > 100 µM (inactive); in the test on U-251, > 100 µM (inactive); with A549 it was > 100 µM (inactive); in the test on SK-MEL-28, > 100 µM (inactive); in the test on SR, > 100 µM (inactive).
For `CNC(=O)CNC(=O)C(Cc1ccc(NC(=O)CCCCC(C)=O)cc1)NC(=O)C(CCC(=O)OCc1ccccc1)NC(=O)OC(C)(C)C` (configuration not stated), the GI50 in the test with MOLT-4, in the test on SN12C, in the test with NCI-H522, in the test with MDA-N, with M14 and with SNB-75 was > 100 µM (inactive) each time. For the same compound, the GI50 in the test with 786-0 was > 100 µM (inactive); with Malme-3M it was > 100 µM (inactive); in the test with SW-620 it was > 100 µM (inactive); with LOX IMVI it was > 100 µM (inactive); in the test with ACHN, > 100 µM (inactive); with HCT-15 it was more than 100 µM. Moreover, the GI50 in the test on K562, with MDA-MB-435, in the test on U-251, in the test on A549, in the test on SK-MEL-28 and in the test on SR was > 100 µM (inactive) in each case.
`COc1ccc(C2(CC(C)C)CCNC2)cc1OC` (configuration not stated): the GI50 with SN12C was > 100 µM (inactive); in the test on NCI-H522, > 100 µM (inactive); in the test on MDA-N it was > 100 µM (inactive); with M14, > 100 µM (inactive); in the test with SNB-75 it was 8.18 µM (inactive); in the test on CCRF-CEM, > 100 µM (inactive). The GI50 in the test on 786-0 is > 100 µM (inactive); in the test with Malme-3M it was > 100 µM (inactive); with SW-620, > 100 µM (inactive); in the test with LOX IMVI, > 100 µM (inactive); with ACHN it was > 100 µM (inactive); with HCT-15, more than 100 µM. Moreover, the GI50 is > 100 µM (inactive) with K562; > 100 µM (inactive) with MDA-MB-435; > 100 µM (inactive) with U-251; > 100 µM (inactive) in the test with A549; > 100 µM (inactive) in the test on SK-MEL-28; 76.4 µM (inactive) with SR.
Turning to `Nc1cc2ncnn2c(SCC(=O)N/N=C/C(Br)=C\c2ccccc2)n1`, the GI50 is 12.4 µM (inactive) with MOLT-4; 17.3 µM (inactive) with SN12C; 10.6 µM (inactive) in the test on NCI-H522; 16.2 µM (inactive) in the test with MDA-N; 20.1 µM (inactive) with SNB-75; 5.77 µM (inactive) with CCRF-CEM. The GI50 in the test with 786-0 is 15.1 µM (inactive); with Malme-3M it was 12.1 µM (inactive); in the test on SW-620, 16.4 µM (inactive); with LOX IMVI, 16 µM (inactive); in the test on ACHN, 16.9 µM (inactive); in the test with HCT-15, 18.1 µM. Besides, the GI50 in the test with K562 was 12.8 µM (inactive); in the test with MDA-MB-435 it was 15 µM (inactive); in the test on U-251, 5.24 µM (inactive); in the test on A549, 16.3 µM (inactive); with SK-MEL-28, 16 µM (inactive); with SR, 10.6 µM (inactive).

The values are drawn from ChEMBL document CHEMBL1201862, “PubChem BioAssay data set” (2004).
